Test results published in US20100009907A1, “Glucagon-Like Peptides and Uses Thereof” (AMYLIN PHARMACEUTICALS, INC., priority 2006, published 2010).
Where no end group is shown, it is not given here.

Columns and labels:
[1] = biological target: T1, GLP-1 receptor (RINm5F cell membranes) (Rattus norvegicus, UniProt P32301); assay: GLP-1 receptor binding assay (GLP RBA), [125I]GLP-1 displacement; conditions: [125I]GLP-1 tracer
T1 construct: RINm5F insulinoma cells expressing endogenous GLP-1 receptors; endogenous in cells; host or cells: RINm5F cell membranes
T1 sequence (P32301 22-463): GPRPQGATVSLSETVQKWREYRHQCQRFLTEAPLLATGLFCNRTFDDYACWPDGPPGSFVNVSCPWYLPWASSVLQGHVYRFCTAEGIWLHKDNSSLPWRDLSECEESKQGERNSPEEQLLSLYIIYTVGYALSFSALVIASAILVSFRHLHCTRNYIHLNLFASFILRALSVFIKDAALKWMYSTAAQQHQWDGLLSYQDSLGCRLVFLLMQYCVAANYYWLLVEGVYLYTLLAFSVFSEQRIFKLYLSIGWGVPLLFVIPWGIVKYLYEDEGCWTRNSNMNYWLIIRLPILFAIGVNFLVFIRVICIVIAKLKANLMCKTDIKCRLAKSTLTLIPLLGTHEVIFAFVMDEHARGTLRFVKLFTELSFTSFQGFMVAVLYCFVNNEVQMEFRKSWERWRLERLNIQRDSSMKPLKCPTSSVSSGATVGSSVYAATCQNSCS
Procedure: Reaction mixtures are filtered through glass filter pads presoaked with 0.3% PEI solution and rinsed with ice-cold phosphate buffered saline. Bound counts are determined using a scintillation counter. Binding affinities are calculated using GraphPad Prism software (GraphPad Software, Inc., San Diego, Calif.).

[2] = biological target: T2, RINm5f cells expressing endogenous GLP-1, calcitonin, and GIP receptors (Rattus norvegicus, UniProt P32301); assay: GLP/GIP/CT cAMP (RIN) assay; assay type: cell-based
T2 construct: RINm5f cells expressing endogenous GLP-1, calcitonin, and GIP receptors; endogenous in cells; host or cells: RINm5f cells
T2 sequence (P32301 22-463): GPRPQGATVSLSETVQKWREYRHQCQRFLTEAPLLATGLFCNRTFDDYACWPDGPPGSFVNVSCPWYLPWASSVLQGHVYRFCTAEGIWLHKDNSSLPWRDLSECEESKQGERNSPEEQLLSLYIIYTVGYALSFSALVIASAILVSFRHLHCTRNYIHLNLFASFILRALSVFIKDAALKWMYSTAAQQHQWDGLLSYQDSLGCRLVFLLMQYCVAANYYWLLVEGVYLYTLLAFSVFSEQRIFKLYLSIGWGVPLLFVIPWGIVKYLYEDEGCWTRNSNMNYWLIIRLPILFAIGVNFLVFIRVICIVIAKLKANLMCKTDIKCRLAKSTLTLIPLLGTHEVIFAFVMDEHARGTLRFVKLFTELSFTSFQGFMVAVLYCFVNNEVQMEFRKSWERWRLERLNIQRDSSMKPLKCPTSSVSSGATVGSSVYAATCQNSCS
Procedure: In addition, receptor binding can be measured using cells prepared from confluent cultures of RINm5f cells expressing endogenous GLP-1, calcitonin, and GIP receptors. Cells, and peptide or buffer solution are combined in 384-well plates. After a 30-minute incubation at room temperature in air, cAMP content is measured as recommended in the Perkin-Elmer AlphaScreen kit instructions.
Cells, and peptide or buffer solutions are combined in 384-well plates and incubated at room temperature in air for 30-minutes. cAMP content can then be measured according to recommendations in the Perkin-Elmer AlphaScreen™ kit instructions using the Perkin Elmer Fusion fluorimeter and data are analyzed using XLfit software (IDBS).

[3] = biological target: T3, GLP-1 receptor (endogenous, RINm5F cell membranes; rat thyroid carcinoma 6-23 clone 6 cells) (rat, UniProt P32301 22-463); assay: cell-based or functional assay
T3 sequence (looked up): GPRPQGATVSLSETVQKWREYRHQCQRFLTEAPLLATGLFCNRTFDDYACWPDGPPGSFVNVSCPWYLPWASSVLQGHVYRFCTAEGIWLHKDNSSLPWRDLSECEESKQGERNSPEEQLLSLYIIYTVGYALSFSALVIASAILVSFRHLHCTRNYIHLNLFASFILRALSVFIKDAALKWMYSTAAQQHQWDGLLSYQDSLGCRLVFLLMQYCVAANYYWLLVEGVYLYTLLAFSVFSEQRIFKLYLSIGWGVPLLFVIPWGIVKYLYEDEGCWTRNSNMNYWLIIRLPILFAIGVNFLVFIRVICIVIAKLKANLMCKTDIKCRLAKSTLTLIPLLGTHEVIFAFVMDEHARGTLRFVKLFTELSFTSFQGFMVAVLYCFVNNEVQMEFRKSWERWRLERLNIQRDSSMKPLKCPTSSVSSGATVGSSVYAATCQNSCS

[4] = biological target: T3, GLP-1 receptor (endogenous, RINm5F cell …); assay: displacement of [125I]GLP-1 from RINm5F cell membranes (GLP RBA)
Procedure: GLP-1 receptor binding activity and affinity can be measured using a binding displacement assay in which the receptor source is RINm5F cell membranes, and the ligand is [¹²⁵I]GLP-1. Homogenized RINm5F cell membranes are incubated in 20 mM HEPES buffer with 40,000 cpm [¹²⁵I]GLP-1 tracer, and varying concentrations of test compound for 60 minutes at 23° C. with constant mixing. Reaction mixtures are filtered through glass filter pads presoaked with 0.3% PEI solution and rinsed with ice-cold phosphate buffered saline. Bound counts are determined using a scintillation counter. Binding affinities are calculated using GraphPad Prism software (GraphPad Software, Inc., San Diego, Calif.).

[5] = biological target: endogenous GLP-1, calcitonin, and GIP receptors of RINm5f cells; assay: cell-based or functional assay

Molecule | IC50 [1] | GLP/GIP/CT cAMP(RIN) EC50 [2] | other results
HAEGTFTSDVTQQLDEKAAKEFIDALINGGPSKEIIS-NH2 (C-terminus assumed) [compound 13] | 74 nM | 196 nM | 
HAEGTFTSDVTQQLDEKAAKEFIDWLINPGSEGIKSI-NH2 (C-terminus assumed) [compound 14] | 18 nM | 18 nM | 
HAEGTFTSDVTQQLDEKAAKEFIDWLINGGPSSGAPPPS-NH2 (C-terminus assumed) [compound 9] |  | 0.28 nM | 
HAEGTFTSDVTQQLEEKAAKEFIEWLIKGKPKKIRYS-NH2 (C-terminus assumed) [compound 22] |  | 0.1 nM | 
CC[C@H](C)[C@H](NC(=O)[C@H](CC(C)C)NC(=O)[C@H](Cc1c[nH]c2ccccc12)NC(=O)[C@H](CC(=O)O)NC(=O)[C@@H](NC(=O)[C@H](Cc1ccccc1)NC(=O)[C@H](CCC(=O)O)NC(=O)[C@H](CCCCN)NC(=O)[C@H](C)NC(=O)[C@H](C)NC(=O)[C@H](CCCCN)NC(=O)[C@H](CCC(=O)O)NC(=O)[C@H](CC(=O)O)NC(=O)[C@H](CC(C)C)NC(=O)[C@H](CCC(N)=O)NC(=O)[C@H](CCC(N)=O)NC(=O)[C@@H](NC(=O)[C@@H](NC(=O)[C@H](CC(=O)O)NC(=O)[C@H](CO)NC(=O)[C@@H](NC(=O)[C@H](Cc1ccccc1)NC(=O)[C@@H](NC(=O)CNC(=O)[C@H](CCC(=O)O)NC(=O)[C@H](C)NC(=O)[C@@H](N)Cc1c[nH]cn1)[C@@H](C)O)[C@@H](C)O)C(C)C)[C@@H](C)O)[C@@H](C)CC)C(=O)N[C@@H](CC(N)=O)C(N)=O [compound 7] | 3 nM | 4.7 nM | 
HAEGTYTNDVTEYLEEKAAKEFIEWLIN-NH2 (C-terminus assumed) [compound 24] |  | 0.85 nM | 
HAEGTYTNDVTEYLEEKAAKEFIEWLINGGPSKEIIS-NH2 (C-terminus assumed) [compound 21] |  | 1 nM | 
HAEGTFTNDMTNYLEEKAAKEFVGWLIKGRS-NH2 (C-terminus assumed) [compound 6] | 1 nM | 1.23 nM | 
CC[C@H](C)[C@H](NC(=O)[C@H](CC(C)C)NC(=O)[C@H](Cc1c[nH]c2ccccc12)NC(=O)[C@H](CC(=O)O)NC(=O)[C@@H](NC(=O)[C@H](Cc1ccccc1)NC(=O)[C@H](CCC(=O)O)NC(=O)[C@H](CCCCN)NC(=O)[C@H](C)NC(=O)[C@H](C)NC(=O)[C@H](CCCCN)NC(=O)[C@H](CCC(=O)O)NC(=O)[C@H](CC(=O)O)NC(=O)[C@H](CC(C)C)NC(=O)[C@H](CCC(N)=O)NC(=O)[C@H](CCC(N)=O)NC(=O)[C@@H](NC(=O)[C@@H](NC(=O)[C@H](CC(=O)O)NC(=O)[C@H](CO)NC(=O)[C@@H](NC(=O)[C@H](Cc1ccccc1)NC(=O)[C@@H](NC(=O)CNC(=O)[C@H](CCC(=O)O)NC(=O)[C@H](C)NC(=O)[C@@H](N)Cc1c[nH]cn1)[C@@H](C)O)[C@@H](C)O)C(C)C)[C@@H](C)O)[C@@H](C)CC)C(=O)N[C@@H](CC(N)=O)C(=O)NCC(=O)NCC(=O)N1CCC[C@H]1C(=O)N[C@@H](CO)C(=O)N[C@@H](CCCCN)C(=O)N[C@@H](CCC(=O)O)C(=O)N[C@H](C(=O)N[C@H](C(=O)N[C@@H](CO)C(N)=O)[C@@H](C)CC)[C@@H](C)CC [compound 11] |  | 0.59 nM | 
HAEGTFTSDVTQQLDEKAAKEFIDWLINGGASKEIIS-NH2 (C-terminus assumed) [compound 12] |  | 0.29 nM | 
HAEGTYTNDVTEYEEKAAKEFIEWLIKGKPKKIRYS (also called nmGLP-1 analog) [SEQ ID NO 38] |  |  | GLP-1 cAMP (6-23) EC50 [3]: 104 nM; IC50 [4]: 42 nM
HAEGTYTNDVTEYLEEAAKEFIEWLIKGKPKKIRYS (also called nmGLP-1 analog) [SEQ ID NO 30] |  |  | GLP-1 cAMP (6-23) EC50 [3]: > 1000 nM; IC50 [4]: 537 nM
HAEGTYTNDVTYLEEKAAKEFIEWLIKGKPKKIRYS (also called nmGLP-1 analog) [SEQ ID NO 41] |  |  | GLP-1 cAMP (6-23) EC50 [3]: 220 nM; IC50 [4]: 9 nM
HAEGTYTNDVTEYLEKAAKEFIEWLIKGKPKKIRYS (also called nmGLP-1 analog) [SEQ ID NO 29] |  |  | GLP-1 cAMP (6-23) EC50 [3]: 930 nM; IC50 [4]: 91 nM
HAEGTYTNDTEYLEEKAAKEFIEWLIKGKPKKIRYS (also called nmGLP-1 analog) [SEQ ID NO 39] |  |  | GLP-1 cAMP (6-23) EC50 [3]: > 1000 nM; IC50 [4]: 61 nM
HAEGTYTNDVTELEEKAAKEFIEWLIKGKPKKIRYS (also called nmGLP-1 analog) [SEQ ID NO 33] |  |  | GLP-1 cAMP (6-23) EC50 [3]: 145 nM; IC50 [4]: 81 nM
HGEGTYTNDVTQFLEEKAAKEFIDWLIKGKPKKQRLS (also called nmGLP-1 analog) [SEQ ID NO 55] |  |  | GLP/GIP/CT cAMP(RIN) EC50 [5]: 0.576 nM; IC50 [4]: 0.05 nM
HAEGTYTNDVTEYLEEKAAKEFIEWLIKGKPKKIRY (also called nmGLP-1 analog) [SEQ ID NO 34] |  |  | GLP-1 cAMP (6-23) EC50 [3]: 0.095 nM; IC50 [4]: 15 nM

The next lines start with results.

IC50 [1] | GLP/GIP/CT cAMP(RIN) EC50 [2] | Molecule | other results
34 nM | 14 nM | HADGTYTSDVSSYLQDQAAKDFITWLKSGQPKPDAVET-NH2 [compound 48] | 
 | 0.576 nM | HGEGTYTNDVTQFLEEKAAKEFIDWLIKGKPKKQRLS-NH2 (C-terminus assumed) [compound 55] | 
22 nM |  | HAEGTYTNDVTEYLEEKAAKEFIEWLIPKKIRYS-NH2 (C-terminus assumed) [compound 32] | 
 | 971 nM | YADAPYISDVYSYLQDQVAKKWLKSGQD-NH2 [compound 51] | 
0.28 nM |  | HAEGTYTNDVTEYLEEKAAKEFIEWLIGKPKKIRYS-NH2 (C-terminus assumed) [compound 35] | 
 | 415 nM | HADGTYTSDVSSYLQDQAAKDFITWLKSGQPKPDAVETRSVDTL-NH2 [compound 49] | 
0.11 nM | 0.967 nM | HGEGTYTNDVTEYLEEKAAKEFIEWLIKGKPKKIRYS-NH2 (C-terminus assumed) [compound 26] | 
 | 0.53 nM | HAEGTYTNDVTEYLEEKAAKEFIEWLIK-NH2 (C-terminus assumed) [compound 25] | 
0.36 nM |  | HAEGTYTNDVTEYLEEKAAKEFIEWLIKGPKKIRYS-NH2 (C-terminus assumed) [compound 36] | 
 | 382 nM | HADGTFTNDMTSYLDAKAARDFVSWLARSDKS-NH2 [compound 52] | 
19 nM |  | HAEGTYTNDVTEYLEEKAAKFIEWLIKGKPKKIRYS-NH2 (C-terminus assumed) [compound 31] | 
